Patent publication US4725577A, “Biologically active lysine containing octapeptides” (Administrators of the Tulane Educational Fund, priority 1986, dated 1988)
Non-standard residues stand in square brackets, D forms with d. Residues, ends and D or L forms follow the SMILES beside them.

Key:
GH Release = assay: in vivo growth hormone bioassay in pentobarbital-anesthetized male rats, s.c. injection, plasma GH by RIA; set-up: species or system rat; settings: for INHIBITION POTENCY GH in vivo: Table C, relative potency, SS-14 = 100, based on 4-point assays
Procedure: The in vivo growth hormone bioassay utilized is as follows:
Male Charles River CD rats (200-300 g.) with free access to food and water were anesthetized with sodium pentobarbital (60 mg.kg intraperitoneally). Thirty minutes later saline or octapeptide is injected subcutaneously and blood samples are drawn from the jugular vein 15 minutes after subcutaneous injection. The plasma is separated and assayed for growth hormone by RIA as described above. This in vivo bioassay is a modification of the methods used by Schally, et al., "Hypothalamic Peptide Hormones: Basic and Clinical Studies", "Hormonal Proteins and Peptides", C. H. Li, ed. Academic Press, N.Y. 7: 1-54, 1978; Meyers, C. A., Murphy, W. A., Redding T. W., Coy, D. H. and Schally, A. V., Proc. Natl. Acad. Sci., USA 77: 6171, 1980; Murphy, W. A., Meyers, C. A. and Coy, D. H., Endoc. 109: 491, (1981) as well as Veber et al., Pro. Natl. Acad. Sci., USA 75: 2636-2640 (1978). For some analogs, doses as low as 0.02 μg/100 g. or even 0.005 μg/ 100 g. are active. The potency of the octapeptides of this invention relative to somatostatin is illustrated in Tables A, B and C. Single dose assays are shown in Table A and 4 point assays at 2 dose levels in Tables B and C.

[1] = test system: CPZ and Morphine stimulated GH secretion; assay: potency #3, time course of CPZ and Morphine stimulated GH secretion; type: in vivo; settings: injected dose 2.0
Excerpt: *Based on time course of CPZ and Morphine stimulated GH secretion.

[2] = test system: pentagastrin or desglugastrin-induced gastric acid output; assay: gastric acid secretion in dogs with gastric fistulae; type: in vivo
Procedure: In order to compare some of the biological actions of the octapeptides of the present invention and somatostatin on gastrointestinal secretions and on the release of some gastrointestinal homones in dogs, the following procedures are used:
Mongrel dogs weighing 15-20 kg. are prepared surgical with gastric (GF) and pancreatic fistulae (PF) as described by Konturek, et al., (1976) 225, 497 and Konturek, et al., Gastroenterology, (1976) 58, 1-6. Secretions from the GF and PF are collected continuously at 15 minute intervals. Hydrogen ion and pepsin concentrations in the […] are also measured in 15- or 30-minute outputs. (Konturek, et al., J. Physiol. Lond., 255, 497 (1976) and Konturek, et al., (1976) supra.). Basal secretion is first collected for two 15 minute periods, and then the secretory stimulant for gastric and/or pancreatic secretion is administered for 31/2 hours. When the secretory rate reaches a subtained plateau, the octapeptides or somatostatin are given in standard doses (2-μg/Kg/hr.). i.v. for a one hour period. […]
In tests on gastric stimulation, pentagastrin or desglugastrin (glutaroyl-Ala-Tyr-Gly-Trp-Leu-Asp-Phe-NH2) is infused i.v. in a constant dose (3 μg/kg/hr.), shown previously to elicit near maximal gastric acid secretion. Gastric secretion is measured and acid content determined by titration with 0.1N NaOH. […]

insulin release = assay: inhibition of insulin release in vivo in fasted male rats, i.v. injection, portal plasma insulin by RIA; set-up: species or system rat; settings: Table C; relative potency, SS-14 = 100; based on 4-point assays
Procedure: The octapeptides of the present invention are also compared to synthetic somatostatin for their ability to inhibit the release of insulin and glucagon in vivo in male rats (CD strain, Charles River) weighing 250-300 g. The rats are kept in controlled temperature (24° C.) and light (0500-1900 h) conditions for 1 week before the assay. Rats are fasted 27-30 hours with free access to water then anesthetized with Nembutal (6 mg/100 g. intraperitoneally). After 30 minutes, saline or test peptide is injected into the jugular vein and blood is collected 5 minutes later from the hepatic portal vein then transferred into chilled tubes containing EDTA (2.5 mg/ml.) and Trasylol (500 K.I.U./ml.). Plasma is separated and stored at -20° C. until assayed for insulin and glucagon. Plasma insulin is determined by double antibody radioimmunoassay using a kit from Cambridge Medical Diagnostics.

growth hormone release = assay: time course of growth hormone suppression in vivo in Nembutal-anesthetized male rats; set-up: species or system rat; settings: 2 μg/100 g
Procedure: In order to determine the time course of the compounds of this invention, male rats are anesthetized with Nembutal and injected with saline or the test octapeptide as in the growth hormone potency assay above. Blood is collected from the jugular vein 15, 30, 45, 60, 90, 120 and 180 minutes post subcutaneous above. This time-course experiment for octapeptides on growth hormone release in vivo a significant suppression of plasma growth hormone. […] At the dose of 2 μg/100 g., the inhibitory effect of somatostatin on growth hormone release is no longer observed after 30 minutes (FIG. 1).

[3] = test system: well differentiated (WD), chemically induced ductal adenocarcinoma; settings: given twice daily or as controlled-release microcapsules; pancreatic cancer model not given; cited from earlier work

For `CC(=O)N[C@H](Cc1ccccc1)C(=O)N[C@@H](CS)C(=O)N[C@@H](Cc1ccccc1)C(=O)N[C@H](Cc1c[nH]c2ccccc12)C(=O)N[C@@H](CCCCN)C(=O)N[C@H](C(=O)N[C@@H](CS)C(=O)N1CCC[C@H]1C(N)=O)[C@@H](C)O` [RC-76-2H, AcD-PheCysPheD-TrpLysThrCysProNH2] (Ac-[dF]CF[dW]KTCP-NH2), the “INHIBITION POTENCY GH in vivo” value (GH Release) was 1070.

For `CC(=O)N[C@@H](Cc1ccccc1)C(=O)N[C@@H](CS)C(=O)N[C@@H](Cc1ccccc1)C(=O)N[C@H](Cc1c[nH]c2ccccc12)C(=O)N[C@@H](CCCCN)C(=O)N[C@H](C(=O)N[C@@H](CS)C(=O)N[C@H](C(N)=O)[C@@H](C)O)[C@@H](C)O` [RC-101-I-2H, AcPheCysPheD-TrpLysThrCysThrNH2], the “INHIBITION POTENCY GH in vivo” value (GH Release) was 11320.

With `CC(=O)N[C@H](Cc1ccccc1)C(=O)N[C@@H](CS)C(=O)N[C@@H](Cc1ccccc1)C(=O)N[C@H](Cc1c[nH]c2ccccc12)C(=O)N[C@@H](CCCCN)C(=O)N[C@H](C(=O)N[C@@H](CS)C(=O)N[C@H](C(N)=O)[C@@H](C)O)[C@@H](C)O` [RC-101-II-2H, AcD-PheCysPheD-TrpLysThrCysThrNH2] the “INHIBITION POTENCY GH in vivo” value (GH Release) was 12900.

For `CC(=O)N[C@@H](Cc1ccccc1)C(=O)N[C@H]1CSSC[C@@H](C(=O)N[C@H](C(N)=O)[C@@H](C)O)NC(=O)[C@H]([C@@H](C)O)NC(=O)[C@H](CCCCN)NC(=O)[C@@H](Cc2c[nH]c3ccccc23)NC(=O)[C@H](Cc2ccccc2)NC1=O` [RC-101-I], the “INHIBITION POTENCY GH in vivo” value (GH Release) was 13560.

With `CC(=O)N[C@H](Cc1ccccc1)C(=O)N[C@H]1CSSC[C@@H](C(=O)N[C@H](C(N)=O)[C@@H](C)O)NC(=O)[C@H](C(C)C)NC(=O)[C@H](CCCCN)NC(=O)[C@@H](Cc2c[nH]c3ccccc23)NC(=O)[C@H](Cc2ccc(O)cc2)NC1=O` [RC-161] the “INHIBITION POTENCY GH in vivo” value (GH Release) was 5520.

For `C[C@H](N)C(=O)NCC(=O)N[C@H]1CSSC[C@@H](C(=O)O)NC(=O)[C@H](CO)NC(=O)[C@H]([C@@H](C)O)NC(=O)[C@H](Cc2ccccc2)NC(=O)[C@H]([C@@H](C)O)NC(=O)[C@H](CCCCN)NC(=O)[C@H](Cc2c[nH]c3ccccc23)NC(=O)[C@H](Cc2ccccc2)NC(=O)[C@H](Cc2ccccc2)NC(=O)[C@H](CC(N)=O)NC(=O)[C@H](CCCCN)NC1=O` [SS-14, Somatostatin], the “GH-RH LEVEL” value [1] was 0.1032, the “duration of gastric acid inhibition after infusion” value ([2]; dogs with gastric fistulae) was “short-lived” and the “inhibition of gastric acid output from the gastric fistula” value ([2]; i.v. infusion for one hour, pentagastrin or desglugastrin stimulation) was “strongly inhibit”. The “INHIBITION POTENCY INSULIN in vivo” value (insulin release) was 100, the “GH Level 15'” value (GH Release; Potency assay #1 (89th experiment), 0.4 μg/100 g B.W., control 116 ± 10) was 88 ± 22 ng/mL and the “GH Level 15'” value (GH Release; Potency assay #1, 1.6 μg/100 g B.W., control 116 ± 10) was 53 ± 10 ng/mL. The “GH Level 15'” value (GH Release; Potency assay #2 (108th experiment), 0.2 μg/100 g B.W., control 211 ± 56) was 171 ± 26 ng/mL, the “GH Level 15'” value (GH Release; Potency assay #2, 0.8 μg/100 g B.W., control 211 ± 56) was 91 ± 12 ng/mL and the “GH-Level mean ± SEM” value (GH Release; Table A single dose assay, 2.00 μg/100 g B.W. s.c., saline control 374 ± 69) was 50 ± 12 ng/mL. For the same compound, the “GH-Level mean ± SEM” value (GH Release; Table A single dose assay, 2.00 μg/100 g B.W. s.c., saline control 754 ± 155) was 95 ± 31 ng/mL, the “GH-Level mean ± SEM” value (GH Release; Table B four-point assay, 0.4 μg/100 g B.W., saline control 277 ± 166) was 86 ± 16 ng/mL and the “GH-Level mean ± SEM” value (GH Release; Table B four-point assay, 1.6 μg/100 g B.W., saline control 277 ± 166) was 47 ± 17 ng/mL. For the same compound, the “INHIBITION POTENCY GH in vivo” value (GH Release) was 100 and the “time after which inhibitory effect on growth hormone release is no longer observed” value (growth hormone release) was at most 30 min.

In the case of D-Trp-6-LH-RH, the “tumor weight and volume” value [3] is given as “significantly decreased”.
